Experimental data: US8933129B2, “Compounds and methods for modulating activity of calcium release channels” (State of Oregon by and through the State Board of Higher …, priority 2009, dated 2015)
Like-named read-outs stand apart in the source and are kept apart here. Values belong to the molecule of their own block, whether it stands above or below them.

How the values were obtained:
[1] = biological target: T1, RyR1 (skeletal muscle CRC) (Oryctolagus cuniculus, UniProt P11716); assay: Single Ca2+ channel analysis: open probability of skeletal muscle CRC reconstituted in planar bilayer; type: biochemical, rabbit
T1 construct: from tissue; host or cells: fast twitch skeletal muscle of New Zealand White rabbit, heavy sarcoplasmic reticulum fraction
Procedure: Fast twitch skeletal muscle sarcoplasmic reticulum was isolated from New Zealand White rabbit, a rich source of skeletal receptors. Following isolation of a crude fraction, the SR was placed on a discontinuous sucrose gradient and a heavy fraction (HSR) was used for all single channel experiments. Ca^2+ release channel reconstitution into a bilayer membrane was carried out by the addition of SR vesicles to the cis side of a planar bilayer lipid membrane. Bilayers, made with a 5:3:2 mixture of phosphatidylethanolamine:phosphatidylserine:phosphatidylcholine (Avanti Polar Lipids) at 50 mg/ml in decane, were formed across a 150 μm hole drilled in a polystyrene cup separating two chambers of 0.7 ml each. […] SR vesicles, suspended in 0.4-0.6 M sucrose, 400 mM CsMS were added to the cis chamber at a final concentration of 5-20 μg/ml.

[2] = tested on: TNF-α female perfused mouse hearts; assay: Ca2+ transients in Langendorff perfused mouse heart (Rhod-2 fluorescence); type: in vivo; settings: for effect on Ca2+ transients, in words: nanomolar concentrations
Text: Ca^2+i transients were monitored in a Langendorff perfused mouse heart using Rhod-2 fluorescence.
It is believed that the faster and larger Ca^2+ transient is due to an increase in Ca^2+ load in the lumen of the SR caused by a reduced Ca^2+ “leak” from the SR.

[3] = Electron donor activity: initial rate of XTT reduction; type: physicochemical; settings: initial rate of XTT reduction fit to Michaelis-Menton equation; read-out: Kd, concentration at which half maximal electron donor activity is observed
Procedure: (§1) A sample buffer containing a compound to be tested and a photo-reactive dye (i.e., 10 μM methylene blue, eosin B or erythrosin B) can be continuously illuminated with white light (e.g., about 10 cm away from a halogen 20 W light source) and its spectral characteristics monitored as a function of time (e.g., using a HP8452A diode array spectrophotometer). This can be performed in the presence of oxygen. In general, oxygen dissolved in the solution may decrease the photochemical activity of the dye. To compensate and to increase the sensitivity of the method, a comparatively high light intensity can be used (e.g., in the range of about 1-3 mW/cm^2).
To determine if a compound is an electron acceptor, an electron donor (e.g., NADH or EDTA) can be added to the sample buffer to supply electrons to the photo-excited dye. The electron donor reduces the concentration of the dye cation radical and maintains an increased concentration of the dye anion radical. To test whether a compound is an electron donor, no separate electron donor is necessary. […] The product can be measured, for example, as an increase in absorbance at 470 nm. The difference between the probe absorbance at 470 nm in the presence of the compound to be tested and a control without the compound can be taken as a measure of redox activity of the compound. […]

[4] = biological target: T2, skeletal muscle CRC (skeletal muscle ryanodine receptor RyR1) (Oryctolagus cuniculus, UniProt P11716); assay: single channel activity (open probability) of skeletal muscle Ca2+ release channel reconstituted in planar lipid bilayer; type: biochemical, rabbit (New Zealand White); settings: sub-micromolar 4-MmC; FIG. 5
T2 construct: heavy sarcoplasmic reticulum vesicles from fast twitch skeletal muscle fused to planar lipid bilayer; single channel recording
Procedure: Fast twitch skeletal muscle sarcoplasmic reticulum was isolated from New Zealand White rabbit, a rich source of skeletal receptors. Following isolation of a crude fraction, the SR was placed on a discontinuous sucrose gradient and a heavy fraction (HSR) was used for all single channel experiments. Ca^2+ release channel reconstitution into a bilayer membrane was carried out by the addition of SR vesicles to the cis side of a planar bilayer lipid membrane. Bilayers, made with a 5:3:2 mixture of phosphatidylethanolamine:phosphatidylserine:phosphatidylcholine (Avanti Polar Lipids) at 50 mg/ml in decane, were formed across a 150 μm hole drilled in a polystyrene cup separating two chambers of 0.7 ml each. The cis chamber contained 400 mM cesium methane sulfonate (CsMS), 50 μM CaCl2, 25 mM HEPES, pH 7.4, while the trans side contained 40 mM CsMS, 25 mM HEPES pH 7.4. SR vesicles, suspended in 0.4-0.6 M sucrose, 400 mM CsMS were added to the cis chamber at a final concentration of 5-20 μg/ml. […] Channel activity was then measured at a holding potential of +25 mV with respect to the trans (ground) side. […] The data were interfaced through a Digidata 1322A 16 bit data Acquisition System (Axon Instruments), stored filtered at 1 kHz and analyzed for single channel activity using pCLAMP software package (version 9.0, Axon Instruments, Burlingame, Calif.).

[5] = electron donor activity (XTT reduction); type: physicochemical; settings: Michaelis-Menten fit, read-out: Kd (concentration at which half maximal electron donor activity is observed)
Procedure: as §1
To determine if a compound is an electron acceptor, an electron donor (e.g., NADH or EDTA) can be added to the sample buffer to supply electrons to the photo-excited dye. The electron donor reduces the concentration of the dye cation radical and maintains an increased concentration of the dye anion radical. To test whether a compound is an electron donor, no separate electron donor is necessary. In both cases, a probe can be added (e.g., NBD-Cl or XTT) to react with superoxide and produce a detectable product. The product can be measured, for example, as an increase in absorbance at 470 nm. The difference between the probe absorbance at 470 nm in the presence of the compound to be tested and a control without the compound can be taken as a measure of redox activity of the compound.
When oxygen is unable to intercept all electrons from the dye anion radical, the dye anion radical may disproportionate and form a colorless compound. This process also may serve as a detectable variable corresponding to the redox activity of the tested compound. A compound with electron-acceptor properties intercepts electrons from dye anion radical and thus slows down the rate of dye photo-bleaching. A compound with electron-donor properties donates electrons to the dye cation radical, thus stabilizing the dye anion radical and increasing the rate of dye photo-bleaching. See also International Publication No. WO 2006/086670. […]

ventricular myocytes = settings: independent of the presence of FKBP12.6; Hunt et al. 2007; cited from earlier work
[6] = tested on: Langendorff perfused rabbit hearts; assay: Dofetilide-induced arrhythmia (LQT2, EADs/TdP) in Langendorff perfused rabbit hearts; type: in vivo
Procedure: (§2) FIG. 12A plots the transmembrane potential (Vm) and intracellular calcium level (Cai) over a 3-second period five minutes after administration of dofetilide (0.5 μM). FIG. 12B plots the transmembrane potential (Vm) and intracellular calcium level (Cai) over a 3-second period ten minutes after administration of dofetilide (0.5 μM).
(§3) EADs are triggered by spontaneous SR Ca^2+ release and increase in severity or frequency leading to TdP after a few minutes.

[7] = biological target: reactive thiols on the RyR/CRC (Oryctolagus cuniculus, UniProt P11716); assay: Redox potential of reactive thiols on RyR from rate of ryanodine binding vs solution redox potential; type: biochemical; settings: tetracaine 25 μM; control (20 μM Ca2+) −160.3±3.2 mV
RyR1 = RyR1 (Oryctolagus cuniculus, UniProt P11716); assay: Thiol content of isolated RyR1 by CPM fluorescence; type: biochemical; settings: 10 mM tetracaine; control ~47 thiols per monomeric receptor
[8] = tested on: Langendorff perfused rabbit hearts; assay: arrhythmia induced by dofetilide in Langendorff perfused rabbit hearts; type: in vivo; settings: with dofetilide 0.5 μM
Procedure: as §2, §3

[9] = skeletal muscle CRC, four parameter logistic curve fit, FIG. 2, read-out: IC50, concentration required to half maximally inhibit single channel activity

T1 sequence (P11716 whole entry): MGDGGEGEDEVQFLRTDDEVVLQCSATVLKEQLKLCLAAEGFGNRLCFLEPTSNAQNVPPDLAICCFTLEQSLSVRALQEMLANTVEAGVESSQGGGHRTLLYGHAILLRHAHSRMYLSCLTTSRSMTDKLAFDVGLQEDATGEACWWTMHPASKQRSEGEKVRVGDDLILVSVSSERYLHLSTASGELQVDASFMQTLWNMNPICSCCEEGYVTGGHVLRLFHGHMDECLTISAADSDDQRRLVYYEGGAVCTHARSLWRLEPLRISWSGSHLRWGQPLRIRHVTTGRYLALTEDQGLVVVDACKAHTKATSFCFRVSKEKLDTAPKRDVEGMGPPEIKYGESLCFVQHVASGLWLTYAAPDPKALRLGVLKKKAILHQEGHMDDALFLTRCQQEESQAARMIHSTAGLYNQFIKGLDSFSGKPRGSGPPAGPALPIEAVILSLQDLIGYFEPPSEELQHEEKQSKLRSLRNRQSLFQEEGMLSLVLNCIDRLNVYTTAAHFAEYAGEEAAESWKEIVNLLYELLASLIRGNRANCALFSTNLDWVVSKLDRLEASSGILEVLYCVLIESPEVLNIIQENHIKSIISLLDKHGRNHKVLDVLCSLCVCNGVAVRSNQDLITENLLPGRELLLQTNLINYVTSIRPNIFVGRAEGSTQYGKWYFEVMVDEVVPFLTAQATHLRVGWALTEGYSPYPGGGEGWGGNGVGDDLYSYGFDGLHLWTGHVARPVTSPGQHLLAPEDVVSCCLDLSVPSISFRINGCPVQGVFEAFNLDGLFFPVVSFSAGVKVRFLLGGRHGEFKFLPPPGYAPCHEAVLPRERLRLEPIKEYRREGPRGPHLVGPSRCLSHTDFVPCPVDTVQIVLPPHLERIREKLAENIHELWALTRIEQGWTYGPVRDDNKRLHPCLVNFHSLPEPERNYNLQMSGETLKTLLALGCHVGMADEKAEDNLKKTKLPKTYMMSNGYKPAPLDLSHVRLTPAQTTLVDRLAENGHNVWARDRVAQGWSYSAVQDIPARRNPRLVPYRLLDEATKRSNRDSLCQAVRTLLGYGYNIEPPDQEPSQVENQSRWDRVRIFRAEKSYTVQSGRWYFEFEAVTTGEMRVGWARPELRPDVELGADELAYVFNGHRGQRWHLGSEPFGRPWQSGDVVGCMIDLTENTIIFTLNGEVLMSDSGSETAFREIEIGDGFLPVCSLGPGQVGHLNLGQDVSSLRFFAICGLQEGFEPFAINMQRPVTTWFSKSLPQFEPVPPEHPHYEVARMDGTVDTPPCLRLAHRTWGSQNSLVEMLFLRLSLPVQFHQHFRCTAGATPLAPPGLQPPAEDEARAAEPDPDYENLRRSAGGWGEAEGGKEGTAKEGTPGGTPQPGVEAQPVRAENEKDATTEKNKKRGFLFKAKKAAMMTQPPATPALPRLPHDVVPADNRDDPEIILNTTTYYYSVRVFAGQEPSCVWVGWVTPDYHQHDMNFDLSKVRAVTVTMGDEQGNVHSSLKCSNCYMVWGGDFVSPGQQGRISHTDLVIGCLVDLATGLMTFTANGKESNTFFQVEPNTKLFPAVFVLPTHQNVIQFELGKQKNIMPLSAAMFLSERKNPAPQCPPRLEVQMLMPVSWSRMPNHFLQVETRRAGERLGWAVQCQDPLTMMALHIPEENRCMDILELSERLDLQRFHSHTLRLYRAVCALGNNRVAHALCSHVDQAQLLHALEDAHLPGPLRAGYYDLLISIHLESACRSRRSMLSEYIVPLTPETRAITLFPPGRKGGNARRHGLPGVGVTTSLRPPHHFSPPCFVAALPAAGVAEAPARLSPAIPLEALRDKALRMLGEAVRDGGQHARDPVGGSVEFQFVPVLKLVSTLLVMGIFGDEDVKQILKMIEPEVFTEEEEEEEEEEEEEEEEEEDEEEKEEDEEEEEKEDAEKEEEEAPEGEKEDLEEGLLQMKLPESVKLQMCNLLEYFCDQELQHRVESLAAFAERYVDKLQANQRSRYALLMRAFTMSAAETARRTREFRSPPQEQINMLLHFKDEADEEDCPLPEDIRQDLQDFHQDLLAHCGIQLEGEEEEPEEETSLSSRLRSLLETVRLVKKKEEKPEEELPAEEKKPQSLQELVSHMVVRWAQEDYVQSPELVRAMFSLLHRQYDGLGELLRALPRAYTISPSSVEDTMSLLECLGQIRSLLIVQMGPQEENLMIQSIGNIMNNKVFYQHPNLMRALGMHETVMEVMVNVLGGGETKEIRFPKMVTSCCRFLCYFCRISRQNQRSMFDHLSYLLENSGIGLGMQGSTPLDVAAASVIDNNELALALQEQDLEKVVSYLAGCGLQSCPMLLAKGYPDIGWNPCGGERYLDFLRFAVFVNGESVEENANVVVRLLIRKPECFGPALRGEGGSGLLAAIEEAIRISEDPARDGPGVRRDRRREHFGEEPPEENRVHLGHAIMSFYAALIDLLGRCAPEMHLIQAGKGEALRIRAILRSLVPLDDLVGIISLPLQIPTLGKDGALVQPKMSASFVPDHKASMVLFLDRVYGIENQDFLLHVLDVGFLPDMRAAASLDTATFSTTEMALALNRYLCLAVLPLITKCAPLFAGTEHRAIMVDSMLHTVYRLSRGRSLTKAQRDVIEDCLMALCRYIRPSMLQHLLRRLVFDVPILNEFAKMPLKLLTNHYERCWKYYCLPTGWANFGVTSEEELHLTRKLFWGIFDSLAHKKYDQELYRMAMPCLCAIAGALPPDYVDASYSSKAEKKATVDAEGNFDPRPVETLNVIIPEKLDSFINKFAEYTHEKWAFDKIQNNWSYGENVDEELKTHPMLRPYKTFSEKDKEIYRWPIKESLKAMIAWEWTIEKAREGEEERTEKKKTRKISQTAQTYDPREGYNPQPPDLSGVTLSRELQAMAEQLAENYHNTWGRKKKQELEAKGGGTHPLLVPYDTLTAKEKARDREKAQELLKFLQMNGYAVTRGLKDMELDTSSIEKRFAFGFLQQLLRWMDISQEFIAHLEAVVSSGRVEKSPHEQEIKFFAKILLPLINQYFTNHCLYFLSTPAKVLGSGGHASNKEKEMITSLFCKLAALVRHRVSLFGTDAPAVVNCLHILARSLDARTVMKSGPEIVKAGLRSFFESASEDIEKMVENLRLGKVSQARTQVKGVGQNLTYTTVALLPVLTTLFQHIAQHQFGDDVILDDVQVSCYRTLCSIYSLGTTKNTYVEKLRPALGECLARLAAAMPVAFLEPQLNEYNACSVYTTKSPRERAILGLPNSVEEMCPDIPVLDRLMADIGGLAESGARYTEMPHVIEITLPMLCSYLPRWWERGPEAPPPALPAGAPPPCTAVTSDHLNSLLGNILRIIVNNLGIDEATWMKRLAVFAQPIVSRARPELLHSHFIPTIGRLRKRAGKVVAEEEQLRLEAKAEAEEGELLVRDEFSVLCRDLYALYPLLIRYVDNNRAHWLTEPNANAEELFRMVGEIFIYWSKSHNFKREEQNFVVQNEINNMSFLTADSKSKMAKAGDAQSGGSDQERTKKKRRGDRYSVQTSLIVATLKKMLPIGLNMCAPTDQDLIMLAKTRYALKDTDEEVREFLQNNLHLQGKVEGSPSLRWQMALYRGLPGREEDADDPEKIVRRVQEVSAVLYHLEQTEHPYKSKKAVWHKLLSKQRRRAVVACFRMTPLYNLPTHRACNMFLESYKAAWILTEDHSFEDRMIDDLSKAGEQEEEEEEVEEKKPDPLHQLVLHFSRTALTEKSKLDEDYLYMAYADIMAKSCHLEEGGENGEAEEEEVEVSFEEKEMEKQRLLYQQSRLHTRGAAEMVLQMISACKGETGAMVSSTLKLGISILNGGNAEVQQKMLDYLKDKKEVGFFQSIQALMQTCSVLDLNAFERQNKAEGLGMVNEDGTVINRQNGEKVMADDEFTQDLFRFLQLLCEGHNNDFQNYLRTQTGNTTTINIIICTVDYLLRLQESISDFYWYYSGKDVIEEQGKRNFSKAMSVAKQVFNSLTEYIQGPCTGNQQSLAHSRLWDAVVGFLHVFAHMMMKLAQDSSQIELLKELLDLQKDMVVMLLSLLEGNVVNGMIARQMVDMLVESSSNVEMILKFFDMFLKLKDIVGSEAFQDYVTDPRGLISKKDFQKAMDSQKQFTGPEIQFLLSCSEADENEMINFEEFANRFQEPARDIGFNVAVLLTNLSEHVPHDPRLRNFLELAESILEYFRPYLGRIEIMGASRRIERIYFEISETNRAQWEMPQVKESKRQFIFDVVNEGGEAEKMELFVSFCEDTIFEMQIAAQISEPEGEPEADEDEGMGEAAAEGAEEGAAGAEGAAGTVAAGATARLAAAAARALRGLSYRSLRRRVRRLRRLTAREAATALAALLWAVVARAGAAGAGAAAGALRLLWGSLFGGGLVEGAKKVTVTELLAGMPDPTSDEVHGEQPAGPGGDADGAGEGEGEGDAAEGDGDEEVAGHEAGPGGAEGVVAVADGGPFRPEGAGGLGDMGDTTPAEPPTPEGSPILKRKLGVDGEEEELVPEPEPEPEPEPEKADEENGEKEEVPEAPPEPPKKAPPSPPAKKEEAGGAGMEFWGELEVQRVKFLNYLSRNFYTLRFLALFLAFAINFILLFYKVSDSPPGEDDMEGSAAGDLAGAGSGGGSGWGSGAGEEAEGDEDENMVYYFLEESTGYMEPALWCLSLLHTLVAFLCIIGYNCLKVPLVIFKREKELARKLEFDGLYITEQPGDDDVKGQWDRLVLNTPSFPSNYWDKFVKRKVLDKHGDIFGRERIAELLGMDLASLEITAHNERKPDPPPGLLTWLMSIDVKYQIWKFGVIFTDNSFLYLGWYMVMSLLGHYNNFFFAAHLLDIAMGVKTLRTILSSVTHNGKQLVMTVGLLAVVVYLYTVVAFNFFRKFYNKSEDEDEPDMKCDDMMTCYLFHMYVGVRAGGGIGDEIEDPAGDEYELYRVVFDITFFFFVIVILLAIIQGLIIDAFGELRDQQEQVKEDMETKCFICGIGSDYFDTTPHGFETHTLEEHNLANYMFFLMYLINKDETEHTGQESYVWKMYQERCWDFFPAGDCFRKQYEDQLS
T1 sequence (P62943 2-108 partner limits assumed): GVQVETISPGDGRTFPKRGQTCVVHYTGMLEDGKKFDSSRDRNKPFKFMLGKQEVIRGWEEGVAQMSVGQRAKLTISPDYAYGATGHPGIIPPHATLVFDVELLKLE
Sequence of RyR1 (P11716 whole entry, the tested form may be a part): as the sequence (P11716 whole entry) above

Molecule: COc1ccc2c(c1)CN(C(=O)CCN1CCC(Cc3ccccc3)CC1)CCS2 [K201]
effect on channel activity in the absence of FKBP12, in words ([1]; 10 μM K201 after 20 μM FK506): still inhibited channel activity | open probability Po ([1]; +5 μM K201, 20 μM Ca2+, control Po=0.107, FIG. 8B): 0.060 | open probability Po ([1]; +10 μM K201, 20 μM Ca2+, control Po=0.107, FIG. 8C): 0.047 | open probability Po ([1]; +10 μM K201 on FK506-treated (20 μM) channel, Po=0.106 before, FIG. 9C): 0.009 | IC50 ([1]; IC50 for K201 inhibition of RyR1, FIG. 2, as restated in Example 4, unit inferred): ~4 µM | IC50 [1, 9]: 3.98 ± 0.79 µM | concentration at which amplitude of Ca2+ transients was adversely affected ([2]; mouse, in vivo): 10 to 25 µM | effect on Ca2+ transients, in words [2]: enhance Ca^2+ transients

Kd [3]: ~12.4 µM
Molecule: FKBP12: FK506 binding protein (calstabin1) that binds RyR1; endogenous electron donor

open probability Po ([1]; +10 μM 4-MmC after 6 mM caffeine (Po=0.071), 50 μM Ca2+, FIG. 3C): 0.015 | Ki ([1]; skeletal muscle CRC, FIG. 5, unit inferred, read-out: Ki for inhibition of single channel activity): ~0.5 µM | effect on open probability (Po), in words ([1]; sub-micromolar concentrations, FIG. 5): significantly decreased | Kd ([5]; listed as 4-methoxy-3-methyl phenol): 13 µM | Kd [5]: ~13 µM
Molecule: COc1ccc(O)cc1C [4-MmC, 4-methoxy-3-methylphenol]
decrease of open probability (Po) at sub-micromolar concentrations [4]: significantly decreased the open probability (Po)

Molecule: COc1ccc2c(c1)CN(C(=O)CCN1CCC(Cc3ccccc3)CC1)CCS2 [K201, reference compound]
Kd [5]: 28 µM | spontaneous Ca2+ release (ventricular myocytes): suppresses spontaneous Ca^2+ release in ventricular myocytes

IC50 [1, 9]: 0.24 ± 0.05 µM | potency of inhibition of single channel activity relative to K201 ([1]; skeletal muscle CRC, ratio of IC50 values): about 16 times
Molecule: COc1ccc2c(c1)CN(C(=O)CCN1CCC(Cc3ccc4c(c3)OCO4)CC1)CCS2 [[1,3]dioxole derivative of K201, 3-(4-(benzo[d][1,3]dioxol-5-ylmethyl)piperidin-1-yl)-1-(7-methoxy-2,3-dihydrobenzo[f][1,4]thiazepin-4(5H)-yl)propan-1-one]
effect on amount of SR Ca2+ release compared to controls, in words ([2]; high concentrations): did not reduce the amount of SR Ca^2+ release | concentration causing enhancement of fractional change in Rhod-2 fluorescence (Ca2+ transient) ([2]; lowest concentration stated (as low as)): 10 nM | effect on Ca2+ transients, in words [2]: enhance Ca^2+ transients | effect on arrhythmias induced by dofetilide, in words ([6]; 1 μM test compound, dofetilide 0.5 μM): reverse arrhythmias | effect on EADs and AP shape, in words ([6]; 1.0 μM, dofetilide 0.5 μM, adult female rabbit hearts paced at 1.2 second intervals): all EADs were suppressed | duration of protective effects ([6]; continuous perfusion with dofetilide and test compound): 20 min

redox potential of the reactive thiols [7]: −147.7±2.8 mV | number of thiols reacting with CPM (RyR1): ~70 per monomer
Molecule: CCCCNc1ccc(C(=O)OCCN(C)C)cc1 [tetracaine]

Molecule: COc1ccc2c(c1)CN(C(=O)CCN1CCC(Cc3ccc4c(c3)OCO4)CC1)CCS2 [[1,3]dioxole derivative, 3-(4-(benzo[d][1,3]dioxol-5-ylmethyl)piperidin-1-yl)-1-(7-methoxy-2,3-dihydrobenzo[f][1,4]thiazepin-4(5H)-yl)propan-1-one]
action potential shape ([8]; 1.0 μM): the normal AP shape was restored | elimination of EADs and delayed afterdepolarizations (DADs) ([8]; 1.0 μM): eliminated both EADs and delayed afterdepolarizations (DADs) | reversal of arrhythmias induced by dofetilide ([8]; 1 μM, FIG. 12): can reverse arrhythmias induced by dofetilide

Molecule: CN(CCOc1ccc(NS(C)(=O)=O)cc1)CCc1ccc(NS(C)(=O)=O)cc1 [Dofetilide, dofetilide, reference compound]
time to elicit EADs ([6]; dofetilide 0.5 μM): 5 min | pro-arrhythmic effect, in words ([6]; dofetilide 0.5 μM, panel B, ten minutes): promotes TdP
